Experiments:
[1] = system: diabetic mice (Male C57BL/Ks DB/DB mouse); assay: Glycated hemoglobin (HbA1c) in diabetic mice after 4 weeks, ELISA kit; format: in vivo; details: 1 mg/kg oral daily for 4 weeks
Procedure: (§1) 6-week-old mice (Male C57BL/6J mouse, 20 g, Central Lab. Animal Inc., Seoul) and 6-week-old diabetic mice (Male C57BL/Ks DB/DB mouse, 20 g, Central Lab. Animal Inc., Seoul) were purchased and acclimated under constant temperature (25° C.) and humidity (50%) for 1 week and used for the experiment.
(§2) Mice were classified into a normal mouse control group, a diabetic mouse control group, a diabetic mouse group treated with drug (glimepiride), a diabetic mouse group treated with the Quamoclit angulata-derived novel compound (KRIBB-BH-P, 1 mg/kg), and a diabetic mouse group treated with the Quamoclit angulata-derived novel compound (KRIBB-BH-SFP, 1 mg/kg), each group consisting of five mice. The treated mice were orally administered with the drug and compounds daily for 4 weeks. The change in blood glucose in mice of each group was measured every week, and after 4 weeks, blood was collected from each mouse to measure the concentration of glycated hemoglobin.
In order to reduce the complications developed in diabetic patients under treatment, it is important to maintain the level of blood glucose at an appropriate level. Since the levels of blood glucose measured at a certain time may be changed by various factors, the test of glycated hemoglobin (HbAlc) is most widely used for the purpose of determining the long-term change in blood glucose control. […]
In order to determine the effect of the Quamoclit angulata-derived novel compound on the glycated hemoglobin, blood was collected from each mouse in the normal mouse control group, the diabetic mouse control group, the diabetic mouse group treated with the Quamoclit angulata-derived novel compound (KRIBB-BH-P, 1 mg/kg), and the diabetic mouse group treated with the Quamoclit angulata-derived novel compound (KRIBB-BH-SFP, 1 mg/kg), in which the treated mice were orally administered with the compounds daily for 4 weeks, and the levels of glycated hemoglobin were measured using an ELISA kit (Cusabio biotech, Japan).

[2] = system: diabetic mice (Male C57BL/Ks DB/DB mouse); assay: Blood glucose in diabetic mice treated orally for 4 weeks; format: in vivo; details: 1 mg/kg oral daily for 4 weeks, vs diabetic mouse control group, FIG. 4
Procedure: Normal mice and diabetic mice were treated with the Quamoclit-derived novel compound to determine the changes in diabetes indicators such as blood glucose and glycated hemoglobin.
as §1, §2

[3] = system: mice fed with high-fat diet (Male C57BL/6J); assay: Fasting blood glucose test in high-fat diet mice after 2 weeks of treatment; format: in vivo, mouse; details: 1 mg/kg oral daily for 2 weeks, fasted 16 hours, FIG. 6
Procedure: 5-week-old mouse (Male C57BL/6J, 19 g, Koatech, Pyeongtaek, Korea) was purchased and acclimated under constant temperature (25° C.) and humidity (50%) for 1 week and used for the experiment. Mice were classified into a group fed with normal diet and a group fed with high-fat diet and the mice were fed for 2 weeks, each group consisting of five mice.
At 2 weeks after feeding with high-fat diet, the experimental mice were classified into a normal mouse control group, a diabetic mouse control group, a diabetic mouse group treated with drug (glimepiride), a diabetic mouse group treated with the Quamoclit angulata-derived novel compound (KRIBB-BH-P, 1 mg/kg), and a diabetic mouse group treated with the Quamoclit angulata-derived novel compound (KRIBB-BH-SFP, 1 mg/kg), and the treated mice were orally administered with the drug and compounds daily for 2 weeks. Then, the mice were fasted for 16 hours, and the level of blood glucose was measured.

Min6 cell line = assay: Stimulation of insulin secretion in mouse pancreatic beta-cell line (Insulin ELISA); format: cell-based; details: 25 mM glucose, 0.5 ng/ml, 2 hours, vs 25 mM glucose negative control, FIG. 3
Procedure: The effect of the novel compound KRIBB-BH-SFP isolated from Quamoclit angulata on the stimulation of insulin secretion was determined in a mouse pancreatic beta-cell line, Min6 cell line.
Min6 cells (ATCC, USA) were cultured in HDMEM supplemented with 15% fetal bovine serum. To induce the expression of insulin in the Min6 cell line, the cells were plated on a 96 well plate at a density of 1×10^4 cell/plate and cultured in […] DMEM (high glucose) supplemented with 15% FBS for 72 hours. Then, the cells were washed with PBS buffer solution and cultured in HBSS buffer solution for 2 hours, and then, the buffer solution was replaced with HBSS buffer solution supplemented with 25 mM glucose. Then, the novel compound […] was added to a final concentration of 0.5 ng/ml, and the cells were cultured for 2 hours to determine the stimulation of insulin expression. Meanwhile, for use as a control, cells were treated with 5.5 mM glucose such that the insulin was not expressed. For use as a negative control, cells were treated with 25 mM glucose, and the level of insulin expression in these cells was compared to determine the effect of the novel compound (KRIBB-BH-SFP) derived from Quamoclit angulata on the stimulation of insulin expression. […]

With `CCCCCC(CCCC(O)CC(=O)O)OC1OC(COC2OC(C)C(OC3CC(O)C(O)C(C)O3)CC2O)C(O)C(O)C1OC1CC(O)C(OC2CC(O)C(OC3CC(O)C(OC)C(C)O3)C(C)O2)C(C)O1` (stereo not drawn) [KRIBB-BH-P] the HbA1c [1] was 6.63 ± 0.70%, the “level of blood glucose” value [2] was “significantly reduced” and the “level of blood glucose (fasting)” value [3] was “significantly reduced”.

`CCCCCC(O)CCCC(O)CC(=O)O` (stereo not drawn) [KRIBB-BH-SC] was tested, and the “level of insulin expression (insulin secreted from Min6 cells)” value (Min6 cell line) was “increased”.

`CCCCCC(CCCC(O)CC(=O)O)OC1OC(C)C(O)C(O)C1O` (stereo not drawn) [KRIBB-BH-SFP] was tested, and the HbA1c [1] was 6.51 ± 0.46%, the “level of glycated hemoglobin” value ([1]; in words) was “significantly reduced” and the “level of blood glucose” value [2] was “significantly reduced”. For the same compound, the “level of insulin expression (insulin secreted from Min6 cells)” value (Min6 cell line) was “increased” and the “level of blood glucose (fasting)” value [3] was “significantly reduced”.

Source: US20160130293A1, “NOVEL COMPOUND DERIVED FROM PLANT OF GENUS QUAMOCLIT AND COMPOSITION CONTAINING SAME AS ACTIVE INGREDIENT FOR PREVENTING OR TREATING DIABETES” (KOREA RESEARCH INSTITUTE BIOSCIENCE, priority 2013, published 2016)
